# Results: patent US5114960A, “Substituted isoxazole derivatives” (Hoffmann-La Roche Inc., priority 1989, dated 1992)
# System: IL-1-dependent PGE^2
# Test: IL-1-dependent PGE2 inhibition test in human rheumatoid synovial cell lines
# Assay type: cell-based
# Conditions: recombinant human IL-1 alpha 0.1 ng/ml, 7 hours, 37° C., read-out: IC50 (concentration reducing PGE2 release to 50% of IL-1-stimulated control values)
# Protocol: IL-1-dependent PGE ^2 inhibition test:
# Human rheumatoid synovial cell lines, prepared by the enzymatic dissociation of fresh rheumatoid tissue, were maintained by culture in Dulbecco's modified Eagle medium containing 25 mM HEPES, 10% foetal calf serum, 100 units of penicillin per ml and 100 μg of streptomycin per ml (culture medium). Standard incubation conditions were 37° C. in a water-saturated atmosphere containing 95% air and 5% CO2.
# Semi-confluent cultures at the third to eighteenth passage were detached by trypsin treatment and resuspended in culture medium at […]. The cell suspension was distributed to 200 μl aliquots into the wells of a 96-well microtitration plate and incubated for 18 hours at 37° C. to allow adhesion of the cells.
# Test substances were dissolved in equimolar sodium hydroxide solution and double-dilution series were prepared in sterile water. If the test substances is a compound of formula I in which one of R^1 and R^2 is alkoxycarbonyl and the other hydrogen, it is treated with hog liver esterase prior to carrying out the test. The medium was aspirated from the microcultures of the synovial cells. 170 μl of culture medium were added and the cultures were treated with 20 μl of test substances and then 10 μl of recombinant human IL-1 alpha culture medium to give a final concentration of 0.1 ng/ml. All treatments were carried out in quadruplet. After incubation for 7 hours, samples of the culture media were removed and stored at -20° C. prior to assay for PGE2. The PGE2 content was determined using a [^I 125]R1A kit obtained from NEN Products.
# PGE2 concentration detected in unstimulated controls were subtracted from values determined in all stimulated cultures and results were transformed to percent of IL-1-stimulated control PGE2 values. IC50 values were determined by interpolation as those concentrations reducing PGE2 release to 50% of IL-1-stimulated control values.
row,Structure (SMILES),IC50 [µM]
1,"O=C(O)[C@H]1[C@H]2CCc3c(-c4ccc(Cl)cc4)noc3[C@H]21 (relative stereo) [Compound C, endo-3-(4-Chlorophenyl)-5,5a,6,6a-tetrahydro-4H-cyclopropa[g]-1,2-benzisoxazole-6-carboxylic acid]",0.5
2,"O=C(O)C1CCc2onc(-c3ccc(Cl)cc3)c2CC1 (single isomer, unassigned; (+)) [Compound A, (+)-3-(4-Chlorophenyl)-5,6,7,8-tetrahydro-4H-cyclohept[d]isoxazole-6-carboxylic acid]",2
3,"O=C(O)C1CCCc2c(-c3ccc(Cl)cc3)noc2C1 (stereo not drawn) [Compound B, 3-(4-Chlorophenyl)-5,6,7,8-tetrahydro-4H-cyclohept[d]isoxazole-7-carboxylic acid]",15
4,"CCC1(C(=O)O)C2CCc3c(-c4ccc(Cl)cc4)noc3C21 (stereo not drawn) [Compound F, endo-3-(4-Chlorophenyl)-6-ethyl-5,5a,6,6a-tetrahydro-4H-cyclopropa[g]-1,2-benzisoxazole-6-carboxylic acid]",0.7

# Results, then the compound that gave them:
row,IC50 [µM],Structure (SMILES)
1,8,"CO[C@@H]1CC[C@@H](C(=O)O)Cc2onc(-c3ccc(Cl)cc3)c21 (relative stereo) [Compound D, trans-3-(4-Chlorophenyl)-5,6,7,8-tetrahydro-4-methoxy-4H-cyclohept[d]isoxazole-7-carboxylic acid]"
2,0.04,"C[C@H]1CC[C@H](C(=O)O)Cc2onc(-c3ccc(Cl)cc3)c21 (relative stereo) [Compound E, trans-3-(4-Chlorophenyl)-5,6,7,8-tetrahydro-4-methyl-4H-cyclohept[d]isoaxazole-7-carboxylic acid]"
